PMC6976569, “Structural basis of subtype-selective competitive antagonism for GluN2C/2D-containing NMDA receptors” (Nature Communications, 2020)
Values joined by “and” are separate entries in the source; they are usually repeats but may differ in a detail not shown here. Equal entries are not always repeated. Where two headings read alike, the source gives them in different places.

Legend:
[1] = molecular target: GluN2A-containing receptors; settings: cited from earlier work
GluN2A-Lys738Met = tested on: GluN2A-Lys738Met; parameters: method as in PMID 24462099; settings: cited from earlier work
[2] = tested on: GluN2C/2D-containing NMDARs; settings: cited from earlier work; for GluN2C/2D preference over GluN2A/2B: allosteric inhibitors
[3] = tested on: GluN1/GluN2B/GluN2D triheteromers; parameters: method as in Brothwell et al., 2008; Suárez et al., 2010; settings: substantia nigra pars compacta; ref Brothwell et al., 2008; Suárez et al., 2010; cited from earlier work
[4] = tested on: tPA-promoted neurotoxicity; parameters: method as in Jullienne et al, 2011; settings: given i.v.; only active where the blood brain barrier was compromised; ref Jullienne et al, 2011; cited from earlier work
[5] = tested on: GluN1/GluN2B/GluN2D triheteromers; parameters: method as in Volianskis et al., 2013; settings: hippocampus, at concentrations selective for GluN2D; ref Volianskis et al., 2013; cited from earlier work
GluA2 = molecular target: GluA2; parameters: method as in PMID 24462099; settings: cited from earlier work
GluK1 = molecular target: GluK1; parameters: method as in PMID 24462099; settings: cited from earlier work
[6] = tested on: GluN2D-containing receptors; settings: cited from earlier work
[7] = molecular target: GluN2B-containing receptors; parameters: method as in earlier work; settings: TEVC; ref 1-3 (supplementary references); cited from earlier work
[8] = molecular target: GluN2C-containing receptors; settings: cited from earlier work
GluN1-4a/GluN2D NMDARs = molecular target: T1, GluN1-4a/GluN2D NMDARs (Rattus norvegicus, UniProt P35439+Q62645); test: TEVC electrophysiology on Xenopus laevis oocytes expressing GluN1-4a/GluN2D; format: cell-based
T1 construct: expressed in transfected cells; host or cells: Xenopus laevis oocytes injected with cRNA
Excerpt: (§1) The chemical definition of UBP791 used in this study is a cis-racemic mixture of (2S,3R)- and (2R,3S)-isomers.
(§2) Plasmids (pSP or pCI_NEO) harboring rat GluN1 or GluN2 full-length subunits were linearized by restriction digestion and transcribed according to the manufacturer’s instructions (mMESSAGE mMachine SP6 or T7 kit, ThermoFisher Scientific). Recombinant rat GluN1-4a and GluN2 were expressed by co-injecting cRNA at a 1:2 (w/w) ratio into defolliculated X. laevis oocytes (amounts varied from 0.05–25 ng per oocyte). Two-electrode voltage-clamp recordings were performed 1–3 days after injection using agarose-tipped microelectrodes (0.4–1.2 MΩ) filled with 3 M KCl at a holding potential of −60 mV. The bath solution contained 5 mM HEPES, 100 mM NaCl, 0.3 mM BaCl2, 10 mM Tricine, at pH 7.4 (adjusted with KOH). […] For the statistical evaluation, we implemented pairwise F-tests to test variances, and then performed the Student t test with equal or unequal variances as determined previously, and accounted for multiple testing with the Bonferroni correction.

[9] = molecular target: T2, GluN1-4a/GluN2D Met763Lys NMDARs (Rattus norvegicus, UniProt P35439+Q62645, M763K); test: TEVC electrophysiology on oocytes expressing GluN1-4a/GluN2D Met763Lys; format: cell-based
T2 construct: expressed in transfected cells; host or cells: Xenopus laevis oocytes injected with cRNA
Excerpt: (§3) To test the validity of the structural observation for the critical involvement of the methionine/lysine residue combination (GluN2D-Met763/Lys766, and GluN2A-4m-Met738/Lys741) in preferential binding of UBP791 to GluN2D over GluN2A, we conducted site-directed mutagenesis and assessed inhibition potencies of the mutant channels by TEVC. Specifically, we converted the GluN2D residues to the equivalent ones in the GluN2A subunit and measured macroscopic currents of the GluN1-4a/GluN2D mutant NMDARs.
as §2

[10] = molecular target: T3, GluN1-4a/GluN2D Lys766Arg NMDARs (Rattus norvegicus, UniProt P35439+Q62645, K766R); test: TEVC electrophysiology on oocytes expressing GluN1-4a/GluN2D Lys766Arg; format: cell-based
T3 construct: expressed in transfected cells; host or cells: Xenopus laevis oocytes injected with cRNA
Excerpt: as §3, §2

[11] = molecular target: T4, GluN1-4a/GluN2D Met763Lys/Lys766Arg NMDARs (Rattus norvegicus, UniProt P35439+Q62645, K766R/M763K); test: TEVC electrophysiology on oocytes expressing GluN1-4a/GluN2D Met763Lys/Lys766Arg; format: cell-based
T4 construct: expressed in transfected cells; host or cells: Xenopus laevis oocytes injected with cRNA
Excerpt: as §3, §2

GluN2D = tested on: GluN2D; parameters: method as in Swanger et al., 2017; settings: GluN2D expressed in mammalian cells; ref Swanger et al., 2017; cited from earlier work
GluN2A/2C-triheteromers = tested on: GluN2A/2C-triheteromers; parameters: method as in Swanger et al, 2017; settings: oocyte-based system; ref Swanger et al, 2017; cited from earlier work
GluN1-4a/GluN2A NMDARs [12] = molecular target: T5, GluN1-4a/GluN2A NMDARs (Rattus norvegicus, UniProt P35439+Q00959); test: TEVC electrophysiology on Xenopus laevis oocytes expressing GluN1-4a/GluN2A; format: cell-based; settings: Cheng–Prusoff from IC50 and L-glutamate EC50; 100 μM glycine, 1 or 3 μM L-glutamate
T5 construct: expressed in transfected cells; host or cells: Xenopus laevis oocytes injected with cRNA
Excerpt: as §1, §2

GluN1-4a/GluN2A NMDARs [13] = molecular target: T6, GluN1-4a/GluN2A NMDARs (Rattus norvegicus, UniProt Q00959); test: as above; format: cell-based; settings: Ki GluN2A relative to Ki GluN2D (WT)
T6 construct: expressed in transfected cells; host or cells: Xenopus laevis oocytes injected with cRNA
Excerpt: as §1, §2

GluA1 = GluA1 (Homo sapiens, UniProt P42261); test: Glutamate-stimulated Ca2+-influx fluorescence assay in HEK293 cells, GluA1; format: cell-based; settings: for IC50: HEK293 cells, glutamate-stimulated Ca2+-influx
Procedure: (§4) HEK293 cell lines stably expressing homomeric glutamate receptors (GluA1, GluK1 and GluK2) were obtained from Eli Lilly and grown in DMEM (ThermoFisher) supplemented with 10% v/v fetal bovine serum (Sigma), 2 mM Glutamax™ (Gibco), 100 U/mL penicillin, 100 µg streptomycin and 250 ng amphotericin B (Sigma) in 5% CO2 at 37 °C. Cells were passaged using TrypLE (Gibco) as required before confluency and periodically treated with selection antibiotics (GluK1, GluK2 hygromycin B, 200 µg/mL; GluA1 geneticin™, 200 µg/mL).
(§5) Calcium influx fluorescence assay
(§6) 100k cells/well were seeded into a 96-well plate precoated with poly-L-lysine and incubated for 12-16 hours until fully confluent. The cell monolayer was washed twice with 100 µL Hanks Balanced Salt Solution supplemented with 5 mM CaCl2 and 20 mM HEPES (sHBSS), then incubated for 2-4 hours with 100 µL working solution of Ca6 dye (Molecular Devices) supplemented with a desensitization blocker (GluK1, GluK2 0.25 mg/mL concanavalin A, Sigma; GluA1 100 µM cyclothiazide, Sigma). The time resolved fluorescence was recorded in a Flexstation 3 instrument (Molecular Devices). For each individual reading, the initial fluorescence of the well was measured for 20 seconds, after which the desired concentration of […]
(§7) response is measured as the peak change in fluorescence upon addition of agonist. The viability of the cells was confirmed by determination of the concentration-response curve to the L-glutamate agonist and a standard antagonist for each plate. Readings of antagonists used the […]
(§8) Fluorescence traces were performed in […]
(§9) triplicate on each plate and Ki values were determined on a plate-by-plate basis. Separate experiments (n) were performed on different passages of cells. […]

GluK2 = GluK2 (Homo sapiens, UniProt Q13002); test: Glutamate-stimulated Ca2+-influx fluorescence assay in HEK293 cells, GluK2; format: cell-based; settings: for IC50: HEK293 cells, glutamate-stimulated Ca2+-influx
Procedure: as §4, §5, §6, §7, §8, §9

[14] = TEVC, ref 1-3 (supplementary references)
[15] = normalized response at 30 µM compound
[16] = normalized response at 100 µM compound

GluA1, sequence (P42261 19-906): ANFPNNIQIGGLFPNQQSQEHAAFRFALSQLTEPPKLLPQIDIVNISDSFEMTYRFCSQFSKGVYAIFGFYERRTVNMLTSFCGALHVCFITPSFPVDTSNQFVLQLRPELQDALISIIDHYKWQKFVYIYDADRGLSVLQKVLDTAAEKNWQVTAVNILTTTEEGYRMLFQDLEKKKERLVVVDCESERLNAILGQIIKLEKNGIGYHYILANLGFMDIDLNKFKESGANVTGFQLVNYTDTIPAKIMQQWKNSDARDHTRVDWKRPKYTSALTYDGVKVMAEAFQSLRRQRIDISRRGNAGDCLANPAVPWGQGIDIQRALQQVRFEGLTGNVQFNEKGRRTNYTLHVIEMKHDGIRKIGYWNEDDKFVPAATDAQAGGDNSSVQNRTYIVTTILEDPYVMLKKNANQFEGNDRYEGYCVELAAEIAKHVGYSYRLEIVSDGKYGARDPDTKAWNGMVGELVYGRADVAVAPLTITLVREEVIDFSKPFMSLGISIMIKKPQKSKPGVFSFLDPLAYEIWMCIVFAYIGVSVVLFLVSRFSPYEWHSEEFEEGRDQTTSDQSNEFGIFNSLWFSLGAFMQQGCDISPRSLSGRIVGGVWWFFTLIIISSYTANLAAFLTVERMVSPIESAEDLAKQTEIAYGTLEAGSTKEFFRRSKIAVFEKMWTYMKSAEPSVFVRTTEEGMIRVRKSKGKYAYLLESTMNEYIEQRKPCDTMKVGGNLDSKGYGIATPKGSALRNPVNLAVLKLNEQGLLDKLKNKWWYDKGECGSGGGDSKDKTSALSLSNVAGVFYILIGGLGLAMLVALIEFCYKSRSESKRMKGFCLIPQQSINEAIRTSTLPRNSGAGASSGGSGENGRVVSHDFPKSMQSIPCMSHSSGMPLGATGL
GluK2, sequence (Q13002 32-908): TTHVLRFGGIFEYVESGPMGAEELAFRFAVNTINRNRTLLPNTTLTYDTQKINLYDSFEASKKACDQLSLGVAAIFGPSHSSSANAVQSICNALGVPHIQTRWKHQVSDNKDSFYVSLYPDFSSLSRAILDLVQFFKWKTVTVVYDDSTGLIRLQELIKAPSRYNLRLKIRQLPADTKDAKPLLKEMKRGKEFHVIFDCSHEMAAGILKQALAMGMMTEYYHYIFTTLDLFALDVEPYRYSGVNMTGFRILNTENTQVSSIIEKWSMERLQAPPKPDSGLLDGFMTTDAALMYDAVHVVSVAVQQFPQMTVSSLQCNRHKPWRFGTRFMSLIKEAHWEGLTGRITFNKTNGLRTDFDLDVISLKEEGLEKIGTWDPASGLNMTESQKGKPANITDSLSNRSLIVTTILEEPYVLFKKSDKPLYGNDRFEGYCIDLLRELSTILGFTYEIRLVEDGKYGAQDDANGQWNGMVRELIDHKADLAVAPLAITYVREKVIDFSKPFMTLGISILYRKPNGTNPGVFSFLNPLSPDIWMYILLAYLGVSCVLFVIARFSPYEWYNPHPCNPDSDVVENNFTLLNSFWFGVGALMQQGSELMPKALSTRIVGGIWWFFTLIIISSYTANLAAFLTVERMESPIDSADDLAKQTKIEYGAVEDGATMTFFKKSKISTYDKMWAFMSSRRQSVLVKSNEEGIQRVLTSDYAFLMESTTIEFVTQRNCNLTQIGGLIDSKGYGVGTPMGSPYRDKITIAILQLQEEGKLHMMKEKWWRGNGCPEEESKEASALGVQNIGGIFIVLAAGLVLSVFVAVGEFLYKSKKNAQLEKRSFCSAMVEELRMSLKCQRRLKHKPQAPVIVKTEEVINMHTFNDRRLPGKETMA
T1 sequence (Q62645 28-1323, other chains not shown): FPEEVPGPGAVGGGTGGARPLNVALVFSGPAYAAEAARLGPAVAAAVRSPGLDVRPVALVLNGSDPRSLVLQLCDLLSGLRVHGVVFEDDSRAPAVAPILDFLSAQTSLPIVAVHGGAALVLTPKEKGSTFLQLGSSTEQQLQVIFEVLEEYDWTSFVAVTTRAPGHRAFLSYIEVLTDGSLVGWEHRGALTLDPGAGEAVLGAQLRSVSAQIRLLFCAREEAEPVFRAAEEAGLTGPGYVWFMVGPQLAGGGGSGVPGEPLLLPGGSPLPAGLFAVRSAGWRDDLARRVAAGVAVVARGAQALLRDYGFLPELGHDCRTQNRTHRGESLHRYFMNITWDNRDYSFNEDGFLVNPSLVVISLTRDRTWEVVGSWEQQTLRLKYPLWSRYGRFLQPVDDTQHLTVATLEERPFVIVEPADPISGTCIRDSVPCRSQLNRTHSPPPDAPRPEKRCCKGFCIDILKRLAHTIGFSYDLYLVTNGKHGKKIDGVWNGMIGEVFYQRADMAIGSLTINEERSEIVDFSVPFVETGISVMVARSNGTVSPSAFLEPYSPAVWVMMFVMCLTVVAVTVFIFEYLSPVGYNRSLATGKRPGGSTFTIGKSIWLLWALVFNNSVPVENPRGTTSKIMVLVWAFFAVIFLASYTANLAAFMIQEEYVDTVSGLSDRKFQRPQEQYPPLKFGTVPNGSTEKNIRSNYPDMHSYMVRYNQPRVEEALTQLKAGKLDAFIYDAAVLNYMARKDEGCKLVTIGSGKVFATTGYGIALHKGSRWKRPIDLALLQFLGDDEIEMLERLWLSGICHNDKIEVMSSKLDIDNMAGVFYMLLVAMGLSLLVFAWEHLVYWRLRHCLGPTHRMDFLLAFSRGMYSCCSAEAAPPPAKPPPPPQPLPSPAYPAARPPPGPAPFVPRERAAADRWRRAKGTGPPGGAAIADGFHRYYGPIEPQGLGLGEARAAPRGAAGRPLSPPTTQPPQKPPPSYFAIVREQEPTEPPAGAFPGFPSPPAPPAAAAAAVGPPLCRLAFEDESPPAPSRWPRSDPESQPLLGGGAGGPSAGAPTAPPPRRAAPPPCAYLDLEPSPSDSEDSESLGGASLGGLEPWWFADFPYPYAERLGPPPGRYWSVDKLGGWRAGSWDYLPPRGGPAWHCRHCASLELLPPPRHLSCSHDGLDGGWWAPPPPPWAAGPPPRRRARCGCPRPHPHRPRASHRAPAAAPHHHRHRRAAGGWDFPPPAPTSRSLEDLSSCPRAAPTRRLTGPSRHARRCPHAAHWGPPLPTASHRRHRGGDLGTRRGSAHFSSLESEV
T6 sequence (Q00959 23-1464, other chains not shown): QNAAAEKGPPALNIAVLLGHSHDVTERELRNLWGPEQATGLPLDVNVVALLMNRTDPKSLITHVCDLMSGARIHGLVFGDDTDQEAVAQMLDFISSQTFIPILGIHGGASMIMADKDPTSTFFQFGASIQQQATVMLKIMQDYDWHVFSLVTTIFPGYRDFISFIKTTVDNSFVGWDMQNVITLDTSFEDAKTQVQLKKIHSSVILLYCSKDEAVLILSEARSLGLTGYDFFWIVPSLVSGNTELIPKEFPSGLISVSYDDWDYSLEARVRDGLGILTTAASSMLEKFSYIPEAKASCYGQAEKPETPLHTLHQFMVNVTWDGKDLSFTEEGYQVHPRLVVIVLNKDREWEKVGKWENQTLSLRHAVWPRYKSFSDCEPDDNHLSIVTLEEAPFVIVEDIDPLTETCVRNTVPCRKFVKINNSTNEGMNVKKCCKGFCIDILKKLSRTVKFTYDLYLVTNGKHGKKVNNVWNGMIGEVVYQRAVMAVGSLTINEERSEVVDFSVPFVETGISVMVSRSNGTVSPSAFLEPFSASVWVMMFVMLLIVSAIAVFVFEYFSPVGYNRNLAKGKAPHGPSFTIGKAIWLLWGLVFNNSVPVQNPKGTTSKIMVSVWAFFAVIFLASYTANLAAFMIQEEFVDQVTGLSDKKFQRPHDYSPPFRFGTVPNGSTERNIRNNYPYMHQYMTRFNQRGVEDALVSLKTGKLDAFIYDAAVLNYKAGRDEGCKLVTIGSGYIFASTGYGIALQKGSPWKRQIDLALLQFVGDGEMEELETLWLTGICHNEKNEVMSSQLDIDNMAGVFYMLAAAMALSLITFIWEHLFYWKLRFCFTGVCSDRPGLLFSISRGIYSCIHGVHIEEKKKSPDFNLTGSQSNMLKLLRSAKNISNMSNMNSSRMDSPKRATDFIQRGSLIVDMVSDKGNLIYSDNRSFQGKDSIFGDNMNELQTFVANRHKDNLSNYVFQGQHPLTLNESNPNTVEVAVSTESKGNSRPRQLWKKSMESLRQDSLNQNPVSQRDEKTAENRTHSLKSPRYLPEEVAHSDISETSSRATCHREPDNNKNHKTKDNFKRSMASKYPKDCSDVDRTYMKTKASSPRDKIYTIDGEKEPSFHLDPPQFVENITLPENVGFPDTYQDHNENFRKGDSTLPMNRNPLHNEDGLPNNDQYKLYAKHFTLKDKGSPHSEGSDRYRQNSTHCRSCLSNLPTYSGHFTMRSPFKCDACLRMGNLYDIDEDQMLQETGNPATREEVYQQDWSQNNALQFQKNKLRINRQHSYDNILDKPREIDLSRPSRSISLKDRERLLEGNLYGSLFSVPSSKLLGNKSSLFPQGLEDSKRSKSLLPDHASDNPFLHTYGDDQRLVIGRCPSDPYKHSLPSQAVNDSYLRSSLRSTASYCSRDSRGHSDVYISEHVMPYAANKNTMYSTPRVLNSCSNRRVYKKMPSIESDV
T4 sequence (Q62645 28-1323 M763K/K766R, other chains not shown): as the sequence (Q62645 28-1323, other chains not shown) above, with M736K, K739R counted along it
T3 sequence (Q62645 28-1323 K766R, other chains not shown): as the sequence (Q62645 28-1323, other chains not shown) above, with K739R counted along it
T2 sequence (Q62645 28-1323 M763K, other chains not shown): as the sequence (Q62645 28-1323, other chains not shown) above, with M736K counted along it

O=C(O)[C@@H]1[C@H](C(=O)O)NCCN1C(=O)c1ccc2c(ccc3ccccc32)c1 (relative stereo) [PPDA, (2S*,3R*)-1-(phenanthrene-2-carbonyl)piperazine-2,3-dicarboxylic acid]
Ki ([1]; GluN2A, PPDA values ref 27): ~0.5 µM | increase of potency compared with the WT GluN2A (GluN2A-Lys738Met): fivefold

O=C(O)[C@H]1NCCN(C(=O)c2ccc3ccc4ccccc4c3c2)[C@H]1C(=O)O (relative stereo) [UBP141, (2R*,3S*)-1-(phenanthrene-3-carbonyl)piperazine-2,3-dicarboxylic acid]
GluN2C/2D selectivity [2]: up to approximately tenfold | inhibition of triheteromers [3]: inhibits

O=C(O)[C@H]1NCCN(C(=O)c2ccc3cc(Br)c4ccccc4c3c2)[C@H]1C(=O)O (relative stereo) [UBP145, (2R*,3S*)-1-(9-bromophenanthrene-3-carbonyl)piperazine-2,3-dicarboxylic acid]
GluN2C/2D selectivity [2]: up to approximately tenfold | effect on tPA neurotoxicity [4]: blocked neurotoxicity of co-applied tissue plasminogen activator (tPA) | block of triheteromers [5]: blocks

O=C(O)C1NCCN(C(=O)c2ccc3c(ccc4ccccc43)c2)C1C(=O)O [(2S,3R)-PPDA]
Ki (GluA2): 7.85 µM | Ki (GluK1): 1.17 µM | fold higher potency compared to the (+)-isomer ([2]; GluN2C and GluN2D-containing NMDARs, ref Irvine et al, 2012): ~ 50 fold | potency of (2S,3R)-PPDA compared with (2R,3S)-PPDA [2]: approximately tenfold higher potency | fold higher potency than the racemate ([2]; on GluN2C and GluN2D, ref 29 (Irvine et al., 2012)): about 1.4 fold | fold higher potency compared to the (+)-isomer ([6]; GluN2D-containing NMDARs, ref Jespersen et al, 2014): 7 fold

Cc1ccc2[nH]c(=O)c(C3=NN(C(=O)CCC(=O)O)C(c4ccc(Br)cc4)C3)c(-c3ccccc3)c2c1 (centres unmarked) [DQP-1105]
GluN2C/2D preference over GluN2A/2B [2]: ~ 50 fold

O=C(O)Cc1cccnc1C(=O)O [HQA, homoquinolinic acid]
EC50 [1, 14]: 10 to 20 µM | EC50 [7]: 10 to 20 µM | EC50 [8, 14]: 30 to 90 µM | EC50 [6, 14]: 30 to 90 µM

N[C@@H](CCC(=O)O)C(=O)O [L-glutamate, reference compound]
EC50 (GluN1-4a/GluN2D NMDARs): 0.17 ± 0.01 µM | EC50 [9]: 0.27 ± 0.02 µM | EC50 [10]: 0.13 ± 0.02 µM | EC50 [11]: 0.17 ± 0.02 µM

CCN(CC)C(=O)Oc1ccc(C(=O)Nc2cccc3cc[nH]c23)cc1 [NAB-14]
GluN2C/2D preference over GluN2A/2B [2]: about 800 fold | selectivity for recombinant GluN2C/GluN2D over GluN2A/GluN2B ([2]; reviewer's statement in peer review file, ref Swanger A. et al (2007)): > 800 fold | IC50 ([8]; GluN2C-diheteromers, oocyte-based system, ref Swanger et al, 2017): 5 µM | IC50 ([6]; GluN2D expressed in Xenopus oocytes, ref Swanger et al., 2017): 2.2 µM | IC50 (GluN2D): 0.58 µM and 0.584 µM | IC50 (GluN2A/2C-triheteromers): ~15 µM

COc1ccc2nc(/C=C/c3cccc([N+](=O)[O-])c3)n(-c3ccc(C(=O)O)cc3)c(=O)c2c1 [QNZ46]
GluN2C/2D preference over GluN2A/2B [2]: ~ 50 fold

CC(Cc1ccc2c(ccc3cc(C(=O)N4CCN[C@H](C(=O)O)[C@@H]4C(=O)O)ccc32)c1)C(=O)O (some centres unmarked) [UBP1701]
Ki (GluN1-4a/GluN2A NMDARs [12]): 4.49 ± 0.46 µM | fold difference of Ki vs. 2D (GluN2A) (GluN1-4a/GluN2A NMDARs [13]): ~ 45 fold | Ki (GluN1-4a/GluN2D NMDARs; Ki, Cheng–Prusoff from IC50 and L-glutamate EC50, 100 μM glycine, 1 or 3 μM L-glutamate): 0.1 ± 0.01 µM | IC50 (GluA1): > 100 µM | Mean Response (GluA1; [15]): 92.5% | Mean Response (GluA1; [16]): 91.6% | IC50 (GluK2): > 100 µM | Mean Response (GluK2; [15]): 96.9% | Mean Response (GluK2; [16]): 96.1%

O=C(O)CCCCc1ccc2c(ccc3cc(C(=O)N4CCNC(C(=O)O)C4C(=O)O)ccc32)c1 (centres unmarked) [UBP1702]
Ki (GluN1-4a/GluN2A NMDARs [12]): 6.75 ± 0.75 µM | fold difference of Ki vs. 2D (GluN2A) (GluN1-4a/GluN2A NMDARs [13]): ~ 52 fold | Ki (GluN1-4a/GluN2D NMDARs; read-out: Ki): 0.13 ± 0.01 µM | IC50 (GluA1): > 100 µM | Mean Response (GluA1; [15]): 86.5% | Mean Response (GluA1; [16]): 97.4% | IC50 (GluK2): > 100 µM | Mean Response (GluK2; [15]): 94.5% | Mean Response (GluK2; [16]): 96.0%
